{"source": "paper PMC5766581", "about": "“NF-κB inducing kinase is a therapeutic target for systemic lupus erythematosus” (Nature Communications, 2018)", "assay_in_all_cases": "SelectScreen kinase panel", "format_in_all_cases": "biochemical", "key": {"Axl": {"target": "T1, Axl (Homo sapiens, UniProt P30530)", "T1 construct": "purchased Invitrogen / ThermoFisher SelectScreen", "procedure,_shortened": "(§1)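 Mean percentage inhibition was determined through Invitrogen's SelectScreen broad profiling service, which used peptide-phosphorylation, ADP-quantitation, or ATP-site binding assays (Z′-LYTE, Adapta, LanthaScreen, respectively).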"}, "CHK2": {"target": "T2, CHK2 (Homo sapiens, UniProt O96017)", "T2 construct": "purchased Invitrogen / ThermoFisher SelectScreen", "procedure,_shortened": "as §1"}, "CK1_epsilon1": {"target": "T3, CK1_epsilon1 (Homo sapiens, UniProt P49674)", "T3 construct": "purchased Invitrogen / ThermoFisher SelectScreen", "procedure,_shortened": "as §1"}, "CamKII_alpha": {"target": "T4, CamKII_alpha (Homo sapiens, UniProt Q9UQM7)", "T4 construct": "purchased Invitrogen / ThermoFisher SelectScreen", "procedure,_shortened": "as §1"}, "DNA-PK": {"target": "T5, DNA-PK (Homo sapiens, UniProt P78527)", "T5 construct": "purchased Invitrogen / ThermoFisher SelectScreen", "procedure,_shortened": "as §1"}, "DYRK4": {"target": "T6, DYRK4 (Homo sapiens, UniProt Q9NR20)", "T6 construct": "purchased Invitrogen / ThermoFisher SelectScreen", "procedure,_shortened": "as §1"}, "FAK": {"target": "T7, FAK (Homo sapiens, UniProt Q05397)", "T7 construct": "purchased Invitrogen / ThermoFisher SelectScreen", "procedure,_shortened": "as §1"}, "FGFR3": {"target": "T8, FGFR3 (Homo sapiens, UniProt P22607)", "T8 construct": "purchased Invitrogen / ThermoFisher SelectScreen", "procedure,_shortened": "as §1"}, "GRK3": {"target": "T9, GRK3 (Homo sapiens, UniProt P35626)", "T9 construct": "purchased Invitrogen / ThermoFisher SelectScreen", "procedure,_shortened": "as §1"}, "HIPK1": {"target": "T10, HIPK1 (Homo sapiens, UniProt Q86Z02)", "T10 construct": "purchased Invitrogen / ThermoFisher SelectScreen", "T10 sequence (Q86Z02 whole entry)": "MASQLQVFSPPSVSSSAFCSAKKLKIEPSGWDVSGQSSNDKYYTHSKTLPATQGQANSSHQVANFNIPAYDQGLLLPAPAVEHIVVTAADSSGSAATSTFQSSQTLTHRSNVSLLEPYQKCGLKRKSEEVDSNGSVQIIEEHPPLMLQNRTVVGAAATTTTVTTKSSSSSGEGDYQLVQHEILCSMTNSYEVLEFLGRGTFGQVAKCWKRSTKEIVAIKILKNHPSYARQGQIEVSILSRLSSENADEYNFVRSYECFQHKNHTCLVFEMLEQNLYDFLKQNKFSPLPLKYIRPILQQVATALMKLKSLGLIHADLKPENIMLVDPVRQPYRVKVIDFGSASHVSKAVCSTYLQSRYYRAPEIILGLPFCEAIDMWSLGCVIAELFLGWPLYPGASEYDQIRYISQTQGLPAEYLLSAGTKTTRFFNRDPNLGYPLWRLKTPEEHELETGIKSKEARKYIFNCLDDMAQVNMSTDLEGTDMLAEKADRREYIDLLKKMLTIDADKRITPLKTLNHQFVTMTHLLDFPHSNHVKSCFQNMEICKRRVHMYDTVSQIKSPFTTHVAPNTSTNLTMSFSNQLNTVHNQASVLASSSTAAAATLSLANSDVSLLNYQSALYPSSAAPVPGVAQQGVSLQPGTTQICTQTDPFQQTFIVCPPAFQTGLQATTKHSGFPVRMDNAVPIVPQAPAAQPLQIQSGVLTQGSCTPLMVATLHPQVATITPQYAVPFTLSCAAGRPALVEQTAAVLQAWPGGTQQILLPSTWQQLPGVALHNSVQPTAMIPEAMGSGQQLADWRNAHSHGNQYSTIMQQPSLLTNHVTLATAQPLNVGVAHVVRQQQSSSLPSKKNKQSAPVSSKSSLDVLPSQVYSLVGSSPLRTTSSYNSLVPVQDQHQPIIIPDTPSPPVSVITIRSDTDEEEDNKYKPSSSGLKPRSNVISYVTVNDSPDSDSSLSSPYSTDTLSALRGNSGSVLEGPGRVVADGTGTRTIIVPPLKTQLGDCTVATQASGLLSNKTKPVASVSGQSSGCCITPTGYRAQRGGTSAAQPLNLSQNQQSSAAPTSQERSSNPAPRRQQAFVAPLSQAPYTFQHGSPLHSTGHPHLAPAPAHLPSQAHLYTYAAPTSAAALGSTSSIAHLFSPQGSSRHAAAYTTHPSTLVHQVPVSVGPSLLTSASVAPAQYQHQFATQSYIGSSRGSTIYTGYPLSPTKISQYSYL", "procedure,_shortened": "as §1"}, "IKK_beta": {"target": "T11, IKK_beta (Homo sapiens, UniProt O14920)", "T11 construct": "purchased Invitrogen / ThermoFisher SelectScreen", "procedure,_shortened": "as §1"}, "ITK": {"target": "T12, ITK (Homo sapiens, UniProt Q08881)", "T12 construct": "purchased Invitrogen / ThermoFisher SelectScreen", "procedure,_shortened": "as §1"}, "JNK1_alpha1": {"target": "T13, JNK1_alpha1 (Homo sapiens, UniProt P45983)", "T13 construct": "purchased Invitrogen / ThermoFisher SelectScreen", "procedure,_shortened": "as §1"}, "LRRK2": {"target": "T14, LRRK2 (Homo sapiens, UniProt Q5S007)", "T14 construct": "purchased Invitrogen / ThermoFisher SelectScreen", "T14 sequence (Q5S007 whole entry)": "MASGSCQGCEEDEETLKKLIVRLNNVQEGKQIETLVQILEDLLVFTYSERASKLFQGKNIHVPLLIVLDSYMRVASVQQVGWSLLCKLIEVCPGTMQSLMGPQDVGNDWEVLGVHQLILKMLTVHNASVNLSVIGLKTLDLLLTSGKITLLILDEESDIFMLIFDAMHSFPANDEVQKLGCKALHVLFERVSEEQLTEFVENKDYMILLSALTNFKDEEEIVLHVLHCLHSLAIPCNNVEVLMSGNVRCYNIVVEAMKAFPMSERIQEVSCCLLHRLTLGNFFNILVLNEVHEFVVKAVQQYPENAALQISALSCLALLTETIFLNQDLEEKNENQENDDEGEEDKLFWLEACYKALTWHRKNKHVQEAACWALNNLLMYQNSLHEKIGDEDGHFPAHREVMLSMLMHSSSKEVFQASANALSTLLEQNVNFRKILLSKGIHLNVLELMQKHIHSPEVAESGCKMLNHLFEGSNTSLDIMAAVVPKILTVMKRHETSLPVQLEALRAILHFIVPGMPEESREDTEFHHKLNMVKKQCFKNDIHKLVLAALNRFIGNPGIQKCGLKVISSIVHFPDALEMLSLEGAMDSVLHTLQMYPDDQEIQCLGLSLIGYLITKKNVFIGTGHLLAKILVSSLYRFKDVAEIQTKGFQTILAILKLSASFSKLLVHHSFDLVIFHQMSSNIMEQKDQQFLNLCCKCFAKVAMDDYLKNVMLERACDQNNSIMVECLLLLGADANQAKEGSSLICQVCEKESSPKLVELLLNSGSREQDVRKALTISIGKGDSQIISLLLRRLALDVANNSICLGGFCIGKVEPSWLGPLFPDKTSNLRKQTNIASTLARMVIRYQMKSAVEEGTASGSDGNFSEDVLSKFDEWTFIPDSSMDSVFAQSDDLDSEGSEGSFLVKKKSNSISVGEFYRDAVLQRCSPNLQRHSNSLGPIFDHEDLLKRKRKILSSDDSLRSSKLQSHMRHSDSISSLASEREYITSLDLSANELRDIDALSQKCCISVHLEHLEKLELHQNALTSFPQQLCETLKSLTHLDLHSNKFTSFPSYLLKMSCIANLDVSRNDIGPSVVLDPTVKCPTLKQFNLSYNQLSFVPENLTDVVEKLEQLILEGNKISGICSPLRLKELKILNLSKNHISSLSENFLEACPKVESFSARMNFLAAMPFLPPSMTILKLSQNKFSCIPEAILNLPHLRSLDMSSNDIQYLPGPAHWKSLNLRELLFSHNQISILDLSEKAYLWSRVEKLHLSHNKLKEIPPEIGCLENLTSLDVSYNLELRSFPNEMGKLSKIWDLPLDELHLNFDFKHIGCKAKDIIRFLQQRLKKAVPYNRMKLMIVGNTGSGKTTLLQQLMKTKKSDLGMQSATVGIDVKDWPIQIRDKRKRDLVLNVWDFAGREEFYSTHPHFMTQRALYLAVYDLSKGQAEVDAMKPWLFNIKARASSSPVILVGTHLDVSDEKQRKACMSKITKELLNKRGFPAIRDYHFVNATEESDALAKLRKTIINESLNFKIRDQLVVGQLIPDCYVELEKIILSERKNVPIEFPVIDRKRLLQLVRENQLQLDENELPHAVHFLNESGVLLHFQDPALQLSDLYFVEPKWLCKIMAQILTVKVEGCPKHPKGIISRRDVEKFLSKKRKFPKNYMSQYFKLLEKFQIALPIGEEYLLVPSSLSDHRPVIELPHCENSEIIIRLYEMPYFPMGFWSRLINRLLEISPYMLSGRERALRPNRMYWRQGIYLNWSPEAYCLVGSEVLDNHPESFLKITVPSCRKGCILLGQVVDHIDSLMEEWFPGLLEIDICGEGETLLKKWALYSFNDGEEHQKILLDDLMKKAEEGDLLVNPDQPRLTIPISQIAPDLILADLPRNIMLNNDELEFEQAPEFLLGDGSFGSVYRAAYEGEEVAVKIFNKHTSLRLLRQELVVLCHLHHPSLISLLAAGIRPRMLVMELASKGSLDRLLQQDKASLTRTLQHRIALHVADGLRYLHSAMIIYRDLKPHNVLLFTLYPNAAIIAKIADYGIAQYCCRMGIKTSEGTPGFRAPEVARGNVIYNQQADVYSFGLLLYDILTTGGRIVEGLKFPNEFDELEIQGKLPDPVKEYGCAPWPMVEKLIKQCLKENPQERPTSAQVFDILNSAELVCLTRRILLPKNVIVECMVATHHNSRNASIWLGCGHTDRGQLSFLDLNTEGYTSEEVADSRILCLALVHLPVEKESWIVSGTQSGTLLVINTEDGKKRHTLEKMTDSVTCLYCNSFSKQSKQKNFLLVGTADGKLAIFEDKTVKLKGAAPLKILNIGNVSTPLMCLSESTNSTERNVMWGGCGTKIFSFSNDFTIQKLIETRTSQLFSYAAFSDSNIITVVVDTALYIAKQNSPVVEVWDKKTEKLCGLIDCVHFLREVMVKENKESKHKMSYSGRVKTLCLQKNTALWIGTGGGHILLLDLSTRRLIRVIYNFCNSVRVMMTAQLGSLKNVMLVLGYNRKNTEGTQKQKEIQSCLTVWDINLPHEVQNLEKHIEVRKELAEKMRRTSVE", "conditions": "NIK SMI1 1 µM; ATP Km app", "procedure,_shortened": "as §1"}, "MAPKAPK3": {"target": "T15, MAPKAPK3 (Homo sapiens, UniProt Q16644)", "T15 construct": "purchased Invitrogen / ThermoFisher SelectScreen", "T15 sequence (Q16644 whole entry)": "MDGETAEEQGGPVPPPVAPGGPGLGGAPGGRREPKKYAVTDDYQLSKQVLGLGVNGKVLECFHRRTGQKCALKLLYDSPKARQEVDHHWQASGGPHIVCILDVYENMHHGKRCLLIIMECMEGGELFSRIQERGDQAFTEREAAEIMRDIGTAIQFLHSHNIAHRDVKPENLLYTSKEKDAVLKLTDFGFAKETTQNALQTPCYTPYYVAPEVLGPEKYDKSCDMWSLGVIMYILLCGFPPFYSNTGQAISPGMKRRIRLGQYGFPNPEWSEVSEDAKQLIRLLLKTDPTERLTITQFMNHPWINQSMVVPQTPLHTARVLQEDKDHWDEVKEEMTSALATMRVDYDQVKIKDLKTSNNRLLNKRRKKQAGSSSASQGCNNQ", "procedure,_shortened": "as §1"}, "MARK3": {"target": "T16, MARK3 (Homo sapiens, UniProt P27448)", "T16 construct": "purchased Invitrogen / ThermoFisher SelectScreen", "procedure,_shortened": "as §1"}, "MSK1": {"target": "T17, MSK1 (Homo sapiens, UniProt O75582)", "T17 construct": "purchased Invitrogen / ThermoFisher SelectScreen", "procedure,_shortened": "as §1"}, "MST2": {"target": "T18, MST2 (Homo sapiens, UniProt Q13188)", "T18 construct": "purchased Invitrogen / ThermoFisher SelectScreen", "procedure,_shortened": "as §1"}, "NEK1": {"target": "T19, NEK1 (Homo sapiens, UniProt Q96PY6)", "T19 construct": "purchased Invitrogen / ThermoFisher SelectScreen", "procedure,_shortened": "as §1"}, "NEK4": {"target": "T20, NEK4 (Homo sapiens, UniProt P51957)", "T20 construct": "purchased Invitrogen / ThermoFisher SelectScreen", "procedure,_shortened": "as §1"}, "NEK9": {"target": "T21, NEK9 (Homo sapiens, UniProt Q8TD19)", "T21 construct": "purchased Invitrogen / ThermoFisher SelectScreen", "procedure,_shortened": "as §1"}, "P38_beta": {"target": "T22, P38_beta (Homo sapiens, UniProt Q15759)", "T22 construct": "purchased Invitrogen / ThermoFisher SelectScreen", "procedure,_shortened": "as §1"}, "PAK6": {"target": "T23, PAK6 (Homo sapiens, UniProt Q9NQU5)", "T23 construct": "purchased Invitrogen / ThermoFisher SelectScreen", "T23 sequence (Q9NQU5 whole entry)": "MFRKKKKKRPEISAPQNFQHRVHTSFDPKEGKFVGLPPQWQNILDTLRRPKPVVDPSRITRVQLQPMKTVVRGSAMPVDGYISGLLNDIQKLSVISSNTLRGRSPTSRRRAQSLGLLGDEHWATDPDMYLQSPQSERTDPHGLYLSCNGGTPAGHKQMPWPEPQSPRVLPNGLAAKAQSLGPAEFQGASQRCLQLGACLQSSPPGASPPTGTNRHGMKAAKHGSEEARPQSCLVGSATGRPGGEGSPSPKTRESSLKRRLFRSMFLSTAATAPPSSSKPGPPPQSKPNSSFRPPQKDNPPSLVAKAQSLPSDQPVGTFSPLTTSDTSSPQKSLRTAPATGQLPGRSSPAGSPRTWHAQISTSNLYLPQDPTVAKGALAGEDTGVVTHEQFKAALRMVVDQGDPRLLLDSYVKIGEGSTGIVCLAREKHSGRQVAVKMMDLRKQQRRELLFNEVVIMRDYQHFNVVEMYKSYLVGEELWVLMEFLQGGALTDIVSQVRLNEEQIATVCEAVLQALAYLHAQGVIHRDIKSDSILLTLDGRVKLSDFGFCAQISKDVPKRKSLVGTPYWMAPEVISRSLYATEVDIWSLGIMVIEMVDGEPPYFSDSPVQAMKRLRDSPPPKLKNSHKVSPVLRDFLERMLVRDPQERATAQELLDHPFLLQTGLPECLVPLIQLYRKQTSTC", "procedure,_shortened": "as §1"}, "PI3K- G": {"target": "T24, PI3K- G (Homo sapiens, UniProt P48736)", "T24 construct": "purchased Invitrogen / ThermoFisher SelectScreen", "procedure,_shortened": "as §1"}, "PKC-epsilon": {"target": "T25, PKC-epsilon (Homo sapiens, UniProt Q02156)", "T25 construct": "purchased Invitrogen / ThermoFisher SelectScreen", "procedure,_shortened": "as §1"}, "PKD_delta": {"target": "T26, PKD_delta (Homo sapiens, UniProt Q05655)", "T26 construct": "purchased Invitrogen / ThermoFisher SelectScreen", "procedure,_shortened": "as §1"}, "PKG1_alpha": {"target": "T27, PKG1_alpha (Homo sapiens, UniProt Q13976)", "T27 construct": "purchased Invitrogen / ThermoFisher SelectScreen", "procedure,_shortened": "as §1"}, "PRAK": {"target": "T28, PRAK (Homo sapiens, UniProt Q8IW41)", "T28 construct": "purchased Invitrogen / ThermoFisher SelectScreen", "procedure,_shortened": "as §1"}, "ROCK1": {"target": "T29, ROCK1 (Homo sapiens, UniProt Q13464)", "T29 construct": "purchased Invitrogen / ThermoFisher SelectScreen", "procedure,_shortened": "as §1"}, "SGK3": {"target": "T30, SGK3 (Homo sapiens, UniProt Q96BR1)", "T30 construct": "purchased Invitrogen / ThermoFisher SelectScreen", "procedure,_shortened": "as §1"}, "TrkA": {"target": "T31, TrkA (Homo sapiens, UniProt P04629)", "T31 construct": "purchased Invitrogen / ThermoFisher SelectScreen", "procedure,_shortened": "as §1"}, "ZAP-70": {"target": "T32, ZAP-70 (Homo sapiens, UniProt P43403)", "T32 construct": "purchased Invitrogen / ThermoFisher SelectScreen", "procedure,_shortened": "as §1"}}, "data": [{"smiles": "COc1cc(C(N)=O)nc(-c2cccc(C#C[C@]3(O)CCN(C)C3=O)c2)c1", "note": "[NIK SMI1]", "values": [{"measurement": "inhibition at 1 µM", "setting": "Axl", "value": 9.3, "unit": "%"}, {"measurement": "inhibition at 1 µM", "setting": "CHK2", "value": 4.5, "unit": "%"}, {"measurement": "inhibition at 1 µM", "setting": "CK1_epsilon1", "value": 6.5, "unit": "%"}, {"measurement": "inhibition at 1 µM", "setting": "CamKII_alpha", "value": 17.5, "unit": "%"}, {"measurement": "inhibition at 1 µM", "setting": "DNA-PK", "value": -4, "unit": "%"}, {"measurement": "inhibition at 1 µM", "setting": "DYRK4", "value": 5.5, "unit": "%"}, {"measurement": "inhibition at 1 µM", "setting": "FAK", "value": 10.5, "unit": "%"}, {"measurement": "inhibition at 1 µM", "setting": "FGFR3", "value": -3.5, "unit": "%"}, {"measurement": "inhibition at 1 µM", "setting": "GRK3", "value": 1.5, "unit": "%"}, {"measurement": "inhibition at 1 µM", "setting": "HIPK1", "value": 4.5, "unit": "%"}, {"measurement": "inhibition at 1 µM", "setting": "IKK_beta", "value": 4.5, "unit": "%"}, {"measurement": "inhibition at 1 µM", "setting": "ITK", "value": -3, "unit": "%"}, {"measurement": "inhibition at 1 µM", "setting": "JNK1_alpha1", "value": 5.6, "unit": "%"}, {"measurement": "% Inhibition", "setting": "LRRK2", "value": 82.1, "unit": "%"}, {"measurement": "inhibition at 1 µM", "setting": "LRRK2", "value": "> 75", "unit": "%"}, {"measurement": "inhibition at 1 µM", "setting": "MAPKAPK3", "value": 1, "unit": "%"}, {"measurement": "inhibition at 1 µM", "setting": "MARK3", "value": 7.5, "unit": "%"}, {"measurement": "inhibition at 1 µM", "setting": "MSK1", "value": 7.5, "unit": "%"}, {"measurement": "inhibition at 1 µM", "setting": "MST2", "value": 28, "unit": "%"}, {"measurement": "inhibition at 1 µM", "setting": "NEK1", "value": 31.5, "unit": "%"}, {"measurement": "inhibition at 1 µM", "setting": "NEK4", "value": 11, "unit": "%"}, {"measurement": "inhibition at 1 µM", "setting": "NEK9", "value": 1.5, "unit": "%"}, {"measurement": "inhibition at 1 µM", "setting": "P38_beta", "value": 9, "unit": "%"}, {"measurement": "inhibition at 1 µM", "setting": "PAK6", "value": 31.5, "unit": "%"}, {"measurement": "inhibition at 1 µM", "setting": "PI3K- G", "value": -2.9, "unit": "%"}, {"measurement": "inhibition at 1 µM", "setting": "PKC-epsilon", "value": 2, "unit": "%"}, {"measurement": "inhibition at 1 µM", "setting": "PKD_delta", "value": 1.5, "unit": "%"}, {"measurement": "inhibition at 1 µM", "setting": "PKG1_alpha", "value": 14.5, "unit": "%"}, {"measurement": "inhibition at 1 µM", "setting": "PRAK", "value": 6, "unit": "%"}, {"measurement": "inhibition at 1 µM", "setting": "ROCK1", "value": 9.5, "unit": "%"}, {"measurement": "inhibition at 1 µM", "setting": "SGK3", "value": -0.5, "unit": "%"}, {"measurement": "inhibition at 1 µM", "setting": "TrkA", "value": 2.5, "unit": "%"}, {"measurement": "inhibition at 1 µM", "setting": "ZAP-70", "value": 17, "unit": "%"}]}]}
